In PubChem BioAssay (NCI):
Converted amounts (≈) assume the structure as drawn.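 Compound exposure: 48 hours, 5 concentrations, 96-well plates. GI50 is the concentration that inhibits growth by half. At the TGI there is no net growth.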

Legend:
Experiment in all cases: NCI anticancer screen, dose series, 48 h
[1] = tested on: HT29 colon
[2] = tested on: SR leukemia
[3] = tested on: RXF 393 renal
[4] = tested on: K-562 leukemia
[5] = tested on: MDA-MB-231 breast
[6] = tested on: 786-0 renal
[7] = tested on: MCF7 breast
[8] = tested on: UO-31 renal
[9] = tested on: SF-268 CNS
[10] = tested on: RPMI-8226 leukemia

Row | Compound | TGI [1] | TGI [2] | TGI [3] | TGI [4] | TGI [5] | TGI [6] [µM] | TGI [7] | TGI [8] | TGI [9] | GI50 [1] [µg/mL] | GI50 [2] [µg/mL] | GI50 [3] [µg/mL] | GI50 [4] [µg/mL] | GI50 [5] [µg/mL] | GI50 [7] [µg/mL] | GI50 [10] [µg/mL] | TGI [10] | GI50 [8] [µg/mL] | GI50 [9] [µg/mL]
1 | CC(C)N(C)C(=O)C12C3C4C1C1C2C3C41C#N (stereo not given) | > 100 µM | > 100 µM | > 100 µM | > 100 µM | > 100 µM | > 100 | > 100 µM | > 100 µM | > 100 µM |  |  |  |  |  |  |  |  |  | 
2 | COc1cc(/C=C2/N=C(c3ccccc3)N(C3=NNC4(C(=O)N3)c3ccccc3-c3ccccc34)NC2=O)ccc1O | 49.1 µg/mL | > 150 µg/mL | 48.6 µg/mL | > 150 µg/mL | 44.5 µg/mL |  | 77.1 µg/mL | 111 µg/mL | 66.7 µg/mL | 27.7 (≈ 49.7 µM) | 48.3 (≈ 86.8 µM) | 26.7 (≈ 48 µM) | 48.6 (≈ 87.4 µM) | 19.3 (≈ 34.6 µM) | 33.2 (≈ 59.6 µM) | 50.2 (≈ 90.1 µM) | > 150 µg/mL | 33.4 (≈ 60 µM) | 27.5 (≈ 49.4 µM)
3 | Cc1ccc(SC(=O)N2C(=S)NC(=NC3CCCCC3)C23CCCCC3)cc1 | > 100 µM | > 100 µM | > 100 µM | > 100 µM | > 100 µM | > 100 | > 100 µM | > 100 µM | > 100 µM |  |  |  |  |  |  |  | > 100 µM |  | 
4 | Cc1cc(C)n(CN(Cn2nc(C)cc2C)C2CCCCC2)n1 | 42.4 µM | > 100 µM | 50.9 µM |  | 64.2 µM | 48.9 | > 100 µM | 52.4 µM | 91.3 µM |  |  |  |  |  |  |  | 38.9 µM |  | 
5 | CSc1cc(N)ccc1N=Nc1ccc(S(N)(=O)=O)cc1 | > 100 µM | > 100 µM | > 100 µM | > 100 µM | 57.9 µM | 76.8 | > 100 µM | 56.1 µM | > 100 µM |  |  |  |  |  |  |  | 38.4 µM |  | 
6 | O=C(NCc1ccc(Cl)cc1)c1cc2sccc2nc1C(F)(F)F | > 100 µM | > 100 µM | 67.4 µM | > 100 µM | > 100 µM | 39.8 | > 100 µM | > 100 µM | 66.9 µM |  |  |  |  |  |  |  | > 100 µM |  | 
7 | C[N+](C)(C)c1ncnc2c1ncn2C1CCCCO1 (stereo not given) | > 100 µM | > 100 µM | > 100 µM | > 100 µM | > 100 µM | > 100 | > 100 µM | > 100 µM | > 100 µM |  |  |  |  |  |  |  | > 100 µM |  | 
8 | NC(N)=NS(=O)(=O)c1ccc(NC(=O)c2ccc3nc4ccccc4c(Nc4ccc(S(N)(=O)=O)cc4)c3c2)cc1 | > 100 µM | > 100 µM | > 100 µM | > 100 µM | > 100 µM | > 100 | > 100 µM | > 100 µM | > 100 µM |  |  |  |  |  |  |  | > 100 µM |  | 
9 | COc1cccc(-c2cc(=O)c3ccc(C)nc3[nH]2)c1 | > 100 µM | 0.0503 µM | > 100 µM | 0.0656 µM | > 100 µM | > 100 | > 22.9 µM | > 100 µM | > 89.7 µM |  |  |  |  |  |  |  | 1.78 µM |  | 
10 | CC(C)(C)OC[C@H](O)CC#N | > 100 µM | > 100 µM | > 100 µM | > 100 µM | > 100 µM | > 100 | > 100 µM | > 100 µM | > 100 µM |  |  |  |  |  |  |  | > 100 µM |  | 
11 | COc1c2cc(C(C)(C)C)cc1Cc1cccc(c1O)Cc1cc(C(C)(C)C)cc(c1OC)Cc1cccc(c1O)Cc1cc(C(C)(C)C)cc(c1OC)Cc1cccc(c1O)C2 | > 100 µM | > 100 µM | > 100 µM | > 100 µM | > 100 µM | > 100 | > 100 µM | > 100 µM | > 100 µM |  |  |  |  |  |  |  | > 100 µM |  | 
12 | COC(=O)[C@@H]1C[C@@]2(C3C=CN(C(=O)C(F)(F)F)C=C3)c3ccccc3N(C(=O)C(F)(F)F)[C@H]2N1C(=O)OC |  | > 100 µM | 60.4 µM | > 100 µM | > 100 µM | > 100 | > 100 µM | > 100 µM | > 100 µM |  |  |  |  |  |  |  | > 100 µM |  | 
13 | CC(=Nc1ccncc1)C(C)=Nc1ccncc1 | 38.2 µM | 67 µM | 59.8 µM | > 100 µM | 62.6 µM | > 100 | 38.3 µM | 30.8 µM | > 100 µM |  |  |  |  |  |  |  | 45 µM |  | 
14 | C=C(C)C1CC=C(C)C2(C1)OCC(C)(C)C(C)O2 (stereo not given) | 33.2 µM | 43.6 µM | 27.3 µM | 45.8 µM | 46.3 µM | 33 | 33.9 µM | 40.8 µM | 70.9 µM |  |  |  |  |  |  |  | 43.2 µM |  | 
15 | O=C1/C(=C2\Sc3c(ccc(Cl)c3Cl)C2=O)Sc2c1ccc(Cl)c2Cl | > 100 µM | > 100 µM | > 100 µM | > 100 µM | > 100 µM | > 100 | > 100 µM | > 100 µM | > 100 µM |  |  |  |  |  |  |  | > 100 µM |  | 
